Laboratory results as given in patent US20080287653A1, “METHOD FOR PRODUCING INHIBITORS AND INHIBITORS FORMED THEREFROM” (THE UNIVERSITY OF AKRON, priority 2007, published 2008).
Marks after values point to notes of the source that are not given here. Non-standard residues stand in square brackets, D forms with d. Residues, ends and D or L forms follow the SMILES beside them. Lys(Thioacetyl) = CC(=S)NCCCC[C@H](N)C(=O)O

Experiments:
SIRT1 = target: T1, SIRT1 (Homo sapiens, UniProt Q96EB6); test: HPLC-based SIRT1 inhibition assay with purified GST-SIRT1; format: biochemical
T1 construct: made in house
T1 sequence (Q96EB6 1-747): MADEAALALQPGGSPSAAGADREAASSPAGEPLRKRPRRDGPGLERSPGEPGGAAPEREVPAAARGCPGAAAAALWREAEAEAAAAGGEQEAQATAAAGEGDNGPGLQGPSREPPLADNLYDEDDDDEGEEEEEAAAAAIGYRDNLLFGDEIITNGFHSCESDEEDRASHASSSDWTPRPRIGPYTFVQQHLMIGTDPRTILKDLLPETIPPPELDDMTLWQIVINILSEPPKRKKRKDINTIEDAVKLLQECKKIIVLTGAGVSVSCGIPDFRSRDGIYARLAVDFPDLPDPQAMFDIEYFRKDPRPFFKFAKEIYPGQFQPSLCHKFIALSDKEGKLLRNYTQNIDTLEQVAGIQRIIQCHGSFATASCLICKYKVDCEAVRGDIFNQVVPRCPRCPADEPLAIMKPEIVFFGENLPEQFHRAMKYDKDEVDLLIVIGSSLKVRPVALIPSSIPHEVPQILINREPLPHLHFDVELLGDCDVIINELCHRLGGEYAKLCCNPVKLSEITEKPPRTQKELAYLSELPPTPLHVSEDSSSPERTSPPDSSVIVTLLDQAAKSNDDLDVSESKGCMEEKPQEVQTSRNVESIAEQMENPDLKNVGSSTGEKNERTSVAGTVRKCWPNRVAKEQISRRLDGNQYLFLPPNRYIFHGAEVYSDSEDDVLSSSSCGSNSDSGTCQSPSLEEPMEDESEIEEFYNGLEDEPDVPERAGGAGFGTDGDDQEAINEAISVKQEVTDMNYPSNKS
Procedure: Inhibition assays with purified SIRT1, SIRT2, and SIRT3. GST-SIRT1 that could be produced in a laboratory was used for the SIRT1 inhibition assay. SIRT2 and SIRT3 are obtainable from commercial sources known to those skilled in the art. Consistent HPLC-based assay procedures were used for the inhibition assays with SIRT1, SIRT2, and SIRT3. […] An enzymatic reaction was initiated by the addition of an enzyme at 37° C. and was allowed to be incubated at 37° C.: 10 minutes as follows: for SIRT1 assay, or 60 minutes for SIRT2 and SIRT3 assays. Incubation was quenched at the indicated time with the following stop solution: 100 mM HCl and 0.16 M acetic acid. […] All peptide stock solutions were prepared in ddH2O. IC50 values were estimated from Dixon plots (1/v0 vs. [inhibitor]) as an indication of the inhibition potency.

HDAC8 [1] = target: T2, HDAC8 (Homo sapiens, UniProt Q9BY41); test: HPLC-based assay with purified HDAC8 (de(thio)acetylation of peptides); format: biochemical; design: key to HDAC8 (sensitive / resistant to HDAC8): +: Sensitive to HDAC8; —: Resistant to HDAC8; details: enzymatic dethioacetylation by HDAC8
T2 construct: purchased
T2 sequence (Q9BY41 1-377): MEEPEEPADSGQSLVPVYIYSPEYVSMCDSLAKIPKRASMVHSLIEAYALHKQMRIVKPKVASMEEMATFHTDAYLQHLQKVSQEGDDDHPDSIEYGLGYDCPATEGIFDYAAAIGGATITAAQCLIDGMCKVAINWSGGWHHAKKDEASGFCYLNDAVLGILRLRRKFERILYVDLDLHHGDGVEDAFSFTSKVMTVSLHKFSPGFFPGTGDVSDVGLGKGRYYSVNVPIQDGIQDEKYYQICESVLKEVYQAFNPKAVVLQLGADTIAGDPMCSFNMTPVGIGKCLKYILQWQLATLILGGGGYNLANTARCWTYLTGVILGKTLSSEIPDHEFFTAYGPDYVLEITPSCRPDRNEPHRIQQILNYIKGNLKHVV
Procedure: To test the foregoing premise, peptides 1b, 2, and 3a were allowed to be incubated for 2 hours at room temperature in the HDAC8 assay buffer in a HPLC-based HDAC8 assay. […] FIG. 5 provides representative HPLC chromatograms from HDAC8 assays with peptides 1b, 2, and 3a. All assays were performed in duplicate and essentially the same HPLC chromatograms were obtained for the duplicates. The small peak with tR˜27 minutes in the second chromatogram was from a minor impurity in the purified peptide 2 sample, rather than the dethioacetylated product. The lack of detectable dethioacetylation of peptide 3a was apparent from the absence of a peak with tR˜34 minutes, shown for peptide 3c in the third chromatogram.
Assay with purified HDAC8. The purified HDAC8 could be obtained from a commercial source for use with a HPLC-based HDAC8 assay. In brief, a HDAC8 assay solution had the following components: 25 mM Tris.HCl (pH 8.0), 137 mM NaCl, 2.7 mM KCl, 1 mM MgCl2, 1 mg/mL BSA (SIGMA Cat. #A3803 with reduced fatty acid content), 0.3 mM peptide 1b, 2, or 3a, and 1.5 μM HDAC8. […] An enzymatic reaction was initiated by the addition of HDAC8 at room temperature and was allowed to be incubated at room temperature for 2 hours before being quenched with the following stop solution: 1.0 M HCl and 0.16 M acetic acid. The quenched assay solutions were directly injected into a reversed-phase HPLC C18 column (100 Å, 0.46×25 cm), eluting with the following gradients of ddH2O containing 0.05% (v/v) trifluoroacetic acid (mobile phase A) and acetonitrile containing 0.05% (v/v) trifluoroacetic acid (mobile phase B): linear increase from 0% B to 35% B (for the assay with peptide 2 or 1b) or 40% B (for the assay with peptide 3a or […]) from 0-40 minutes (1 mL/min), and UV monitoring at 214 nm. […] The enzymatically formed peptide 1c was confirmed by its comigration with the chemically synthesized authentic sample and by MALDI-TOF mass spectrometric analysis, and was quantified by HPLC peak integration and comparison with that of synthetic authentic sample.

SIRT2 = target: T3, SIRT2 (Homo sapiens, UniProt Q8IXJ6); test: HPLC-based SIRT2 inhibition assay with purified SIRT2; format: biochemical; details: SIRT2 vs SIRT1
T3 construct: purchased
T3 sequence (Q8IXJ6 1-389): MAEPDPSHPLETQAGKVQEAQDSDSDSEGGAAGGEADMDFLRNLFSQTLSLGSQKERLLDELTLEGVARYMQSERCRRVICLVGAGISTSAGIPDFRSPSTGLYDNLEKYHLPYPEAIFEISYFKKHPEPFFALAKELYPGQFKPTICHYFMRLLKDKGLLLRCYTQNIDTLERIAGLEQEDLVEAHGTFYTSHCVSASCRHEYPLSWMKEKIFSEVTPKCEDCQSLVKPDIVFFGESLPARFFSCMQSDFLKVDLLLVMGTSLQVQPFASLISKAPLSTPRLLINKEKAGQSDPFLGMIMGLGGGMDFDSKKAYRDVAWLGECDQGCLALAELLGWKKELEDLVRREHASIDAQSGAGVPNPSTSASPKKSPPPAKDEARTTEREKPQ
Procedure: (§1) Inhibition assays with purified SIRT1, SIRT2, and SIRT3. GST-SIRT1 that could be produced in a laboratory was used for the SIRT1 inhibition assay. SIRT2 and SIRT3 are obtainable from commercial sources known to those skilled in the art. Consistent HPLC-based assay procedures were used for the inhibition assays with SIRT1, SIRT2, and SIRT3. In brief, an inhibition assay solution had the following components: 25 mM (or 50 mM for SIRT2 assay) Tris.HCl (pH 8.0) 137 mM NaCl, 2.7 mM KCl, 1 mM MgCl2, 1 mg/mL BSA (SIGMA Cat. #A3803 with reduced fatty acid content, for SIRT2 assay only), 0.5 mM β-NAD^+, 0.3 mM peptide substrate (peptide 1b for SIRT1 and SIRT2 assays; peptide 3b for SIRT3 assay), an inhibitor (peptide 1a, 2, or 3a) with varied concentrations including 0, and an enzyme (GST-SIRT1, 0.15 μM; SIRT2, 0.3 μM; or SIRT3, 2.0 μM). […] An enzymatic reaction was initiated by the addition of an enzyme at 37° C. and was allowed to be incubated at 37° C.: 10 minutes as follows: for SIRT1 assay, or 60 minutes for SIRT2 and SIRT3 assays. […] The enzymatic deacetylation products (peptide 1c in SIRT1 and SIRT2 assays; peptide 3c in SIRT3 assay) were confirmed by their comigration with the chemically synthesized authentic samples and by MALDI-TOF mass spectrometric analysis, and were quantified by HPLC peak integration and comparison with those of synthetic authentic samples. […]

SIRT1, SIRT2, and SIRT3 = test: Dethioacetylation of inhibitor peptides under the sirtuin inhibition assay conditions; format: biochemical, human; details: same assay conditions as SIRT1/SIRT2/SIRT3 inhibition assays
Procedure: Inhibition assays with purified SIRT1, SIRT2, and SIRT3. GST-SIRT1 that could be produced in a laboratory was used for the SIRT1 inhibition assay. SIRT2 and SIRT3 are obtainable from commercial sources known to those skilled in the art. Consistent HPLC-based assay procedures were used for the inhibition assays with SIRT1, SIRT2, and SIRT3. In brief, an inhibition assay solution had the following components: 25 mM (or 50 mM for SIRT2 assay) Tris.HCl (pH 8.0) 137 mM NaCl, 2.7 mM KCl, 1 mM MgCl2, 1 mg/mL BSA (SIGMA Cat. #A3803 with reduced fatty acid content, for SIRT2 assay only), 0.5 mM β-NAD^+, 0.3 mM peptide substrate (peptide 1b for SIRT1 and SIRT2 assays; peptide 3b for SIRT3 assay), an inhibitor (peptide 1a, 2, or 3a) with varied concentrations including 0, and an enzyme (GST-SIRT1, 0.15 μM; SIRT2, 0.3 μM; or SIRT3, 2.0 μM). […] An enzymatic reaction was initiated by the addition of an enzyme at 37° C. and was allowed to be incubated at 37° C.: 10 minutes as follows: for SIRT1 assay, or 60 minutes for SIRT2 and SIRT3 assays. Incubation was quenched at the indicated time with the following stop solution: 100 mM HCl and 0.16 M acetic acid. The conversion of the limiting substrate to the product was maintained at ≦12%. The quenched assay solutions were directly injected into a reversed-phase HPLC C18 column (100 Å, 0.46×25 cm), eluting with the following gradients of ddH2O containing 0.05% (v/v) trifluoroacetic acid (mobile phase A) and acetonitrile containing 0.05% (v/v) trifluoroacetic acid (mobile phase B): linear increase from 0% B to 35% B (for SIRT1 assay) or 40% B (for SIRT2 and SIRT3 assays) from 0-40 minutes (1 mL/min), and UV monitoring at 214 nm. The enzymatic deacetylation products (peptide 1c in SIRT1 and SIRT2 assays; peptide 3c in SIRT3 assay) were confirmed by their comigration with the chemically synthesized authentic samples and by MALDI-TOF mass spectrometric analysis, and were quantified by HPLC peak integration and comparison with those of synthetic authentic samples. […] All peptide stock solutions were prepared in ddH2O. […]

SIRT3 = target: T4, SIRT3 (Homo sapiens, UniProt Q9NTG7); test: HPLC-based SIRT3 inhibition assay with purified SIRT3; format: biochemical; details: SIRT3 vs SIRT1
T4 construct: purchased
T4 sequence (Q9NTG7 1-399): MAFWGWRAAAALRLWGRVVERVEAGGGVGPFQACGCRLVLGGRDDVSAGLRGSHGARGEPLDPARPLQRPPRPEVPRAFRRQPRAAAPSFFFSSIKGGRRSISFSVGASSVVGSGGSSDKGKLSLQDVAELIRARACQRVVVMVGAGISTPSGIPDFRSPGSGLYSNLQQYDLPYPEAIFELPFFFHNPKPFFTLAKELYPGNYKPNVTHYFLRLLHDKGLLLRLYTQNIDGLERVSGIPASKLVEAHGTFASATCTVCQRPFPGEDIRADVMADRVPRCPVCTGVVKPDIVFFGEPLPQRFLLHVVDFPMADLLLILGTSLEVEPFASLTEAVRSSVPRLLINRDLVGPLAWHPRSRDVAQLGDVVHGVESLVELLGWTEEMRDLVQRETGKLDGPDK
Procedure: as §1

HDAC8 [2] = target: T2, HDAC8; details: inventors' earlier work, Fatkins et al.; cited from earlier work

## CC(=O)N[C@@H](CCCCNC(C)=S)C(=O)O [N^α-acetyl-N^ε-thioacetyl-lysine, L-N^α-acetyl-N^ε-thioacetyl-lysine]
SIRT1
  SIRT1 inhibition at 2 mM: No inhibition
SIRT1; listed as L-N^α-acetyl-N^ε-thioacetyl-lysine
  SIRT1 inhibition at 2 mM: did not exhibit any SIRT1 inhibition

## CSCC[C@H](NC(=O)[C@H](CC(C)C)NC(=O)[C@H](CCCCNC(C)=S)NC(=O)[C@H](CCCCN)NC(=O)[C@@H](N)Cc1c[nH]cn1)C(=O)O [Peptide 4] (H-HK[Lys(Thioacetyl)]LM-OH)
SIRT1; vs peptide 1a
  decrease in SIRT1 inhibition potency following truncation of peptide 1a: approximately 6 fold

## CC(=S)NCCCC[C@H](NC(=O)OCC1c2ccccc2-c2ccccc21)C(=O)O [N^α-Fmoc-N^ε-thioacetyl-lysine, L-N^α-Fmoc-N^ε-thioacetyl-lysine]
SIRT1; concentration to achieve 25% inhibition
  IC25 for SIRT1: 2,000 uM
SIRT1; concentration to achieve 25% inhibition, 0.5 mM β-NAD+, 0.3 mM peptide substrate
  IC25 SIRT1: 2,000 (IC25) μM

## CSCC[C@H](NC(=O)[C@H](CC(C)C)NC(=O)[C@H](CCCCNC(C)=S)NC(=O)[C@H](CCCCN)NC(=O)[C@@H](N)Cc1cnc[nH]1)C(=O)O [Peptide 4] (H-HK[Lys(Thioacetyl)]LM-OH)
SIRT1
  IC50: 10.4 ± 0.3 µM

## CSCC[C@H](NC(=O)[C@H](CC(C)C)NC(=O)[C@H](CCCCNC(C)=S)NC(=O)[C@H](CCCCN)NC(=O)[C@H](Cc1c[nH]cn1)NC(=O)[C@H](CCCNC(=N)N)NC(=O)[C@H](CO)NC(=O)[C@@H](NC(=O)[C@H](CO)NC(=O)[C@H](CCC(N)=O)NC(=O)CNC(=O)[C@H](CCCCN)NC(=O)[C@@H](N)CCCCN)[C@@H](C)O)C(=O)N[C@@H](Cc1ccccc1)C(=O)N[C@@H](CCCCN)C(=O)N[C@H](C(=O)N[C@@H](CCC(=O)O)C(=O)NCC(=O)O)[C@@H](C)O [Peptide 1a]
HDAC8 [1]
  HDAC8 (sensitive / resistant to HDAC8): +^c
SIRT2
  inhibition potency against SIRT2 relative to that against SIRT1: comparable inhibition potency
SIRT1, SIRT2, and SIRT3
  formation of dethioacetylated peptide under sirtuin inhibition assay conditions: did not give rise to detectable formation
SIRT3
  inhibition potency weaker against SIRT3 than against SIRT1: approximately 35 fold
HDAC8 [2]
  de(thio)acetylation by HDAC8 (previously demonstrated): comparably de(thio)acetylated by HDAC8
